Data: ChEMBL document CHEMBL1143213, “Anticancer activity of (1,2,3,5-tetrahydro-4,1-benzoxazepine-3-yl)-pyrimidines and -purines against the MCF-7 cell line: Preliminary cDNA microarray studies” (Bioorg Med Chem Lett, 2008)
pIC50: −log10 of the molar value. The source made the active and inactive calls. No cut-off for these calls is given here.

tested on: MCF7; assay: Antiproliferative activity against human MCF7 cells; assay type: functional, cell-based; conditions: Homo sapiens, MCF7

Row | pIC50 | Structure (SMILES)
1 | 4.71 | O=c1[nH]c(=O)n(C2CN(S(=O)(=O)c3ccc([N+](=O)[O-])cc3)c3ccccc3CO2)cc1F (stereo unspecified)
2 | 4.19 | COC(CN(c1ccccc1CO)S(=O)(=O)c1ccccc1[N+](=O)[O-])n1ccc(=O)[nH]c1=O (stereo unspecified)
3 | 4.36 | Nc1ccccc1S(=O)(=O)N1CC(n2c(=O)[nH]cc(F)c2=O)OCc2ccccc21 (stereo unspecified)
4 | 5.90 | COc1ccc2c(c1)COC(n1cc(F)c(=O)[nH]c1=O)CO2 (stereo unspecified)
5 | 5.90 | Ic1ncnc2ncn(C3COc4ccccc4CO3)c12 (stereo unspecified)
6 | 5.68 | O=[N+]([O-])c1ccccc1S(=O)(=O)N1CC(n2cnc3c(Cl)ncnc32)OCc2ccccc21 (stereo unspecified)
7 | 4.65 | O=c1[nH]cc(F)c(=O)n1C1CN(S(=O)(=O)c2ccccc2[N+](=O)[O-])c2ccccc2CO1 (stereo unspecified)
8 | 4.26 | COC(CN(c1ccccc1CO)S(=O)(=O)c1ccc([N+](=O)[O-])cc1)n1cc(F)c(=O)[nH]c1=O (stereo unspecified)
9 | 4.34 | COC(CN(c1ccccc1CO)S(=O)(=O)c1ccc([N+](=O)[O-])cc1)n1ccc(=O)[nH]c1=O (stereo unspecified)
10 | 6.17 | O=C(OCC1c2ccccc2-c2ccccc21)N1CC(n2cnc3c(Cl)ncnc32)OCc2ccccc21 (racemic)
11 | 4.70 | O=c1[nH]cc(F)c(=O)n1C1CN(S(=O)(=O)c2ccc([N+](=O)[O-])cc2)c2ccccc2CO1 (stereo unspecified)
12 | < 4.00 | O=[N+]([O-])c1ccc(S(=O)(=O)N2CC(n3cnc4ncnc(O)c43)OCc3ccccc32)cc1 (stereo unspecified)
13 | 4.26 | Nc1ccccc1S(=O)(=O)N1CC(n2cc(F)c(=O)[nH]c2=O)OCc2ccccc21 (stereo unspecified)
14 | 4.35 | O=c1cc[nH]c(=O)n1C1CN(S(=O)(=O)c2ccc([N+](=O)[O-])cc2)c2ccccc2CO1 (stereo unspecified)
15 | 5.91 | O=[N+]([O-])c1ccc(S(=O)(=O)N2CC(n3cnc4ncnc(Cl)c43)OCc3ccccc32)cc1 (stereo unspecified)
16 | 5.90 | Clc1ncnc2ncn(C3COc4ccccc4CO3)c12 (stereo unspecified)
17 | 5.90 | Clc1nc(Cl)c2c(ncn2C2COc3ccccc3CO2)n1 (stereo unspecified)
18 | < 4.00 | O=c1[nH]c(=O)n(C2CNc3ccccc3CO2)cc1F (stereo unspecified)
19 | 6.07 | O=[N+]([O-])c1ccc(S(=O)(=O)N2CC(n3cnc4ncnc(Sc5ccccc5)c43)OCc3ccccc32)cc1 (stereo unspecified)
20 | 4.31 | c1ccc(Sc2ncnc3ncn(C4CNc5ccccc5CO4)c23)cc1 (stereo unspecified)
21 | 5.90 | Ic1ncnc2c1ncn2C1COc2ccccc2CO1 (stereo unspecified)
22 | 4.84 | Nc1ccc(S(=O)(=O)N2CC(n3cc(F)c(=O)[nH]c3=O)OCc3ccccc32)cc1 (stereo unspecified)
23 | 4.73 | COC(CN(c1ccccc1CO)S(=O)(=O)c1ccc([N+](=O)[O-])cc1)n1cnc2c(Cl)ncnc21 (stereo unspecified)
24 | 4.04 | COC(CN(c1ccccc1CO)S(=O)(=O)c1ccccc1[N+](=O)[O-])n1cc(F)c(=O)[nH]c1=O (stereo unspecified)

Row | pIC50 | Structure (SMILES)
25 | 4.71 | O=c1[nH]c(=O)n(C2CN(S(=O)(=O)c3ccccc3[N+](=O)[O-])c3ccccc3CO2)cc1F (stereo unspecified)
26 | 4.26 | COC(CN(c1ccccc1CO)S(=O)(=O)c1ccc([N+](=O)[O-])cc1)n1c(=O)cc[nH]c1=O (stereo unspecified)
27 | 5.90 | FC(F)(F)c1ncnc2c1ncn2C1COc2ccccc2CO1 (stereo unspecified)
28 | 5.56 | O=[N+]([O-])c1ccc(S(=O)(=O)N2CC(n3cnc4c(Cl)ncnc43)OCc3ccccc32)cc1 (stereo unspecified)
29 | 5.90 | Clc1ncnc2c1ncn2C1COc2ccccc2CO1 (stereo unspecified)
30 | 5.90 | Clc1nc(Cl)c2ncn(C3COc4ccccc4CO3)c2n1 (stereo unspecified)
31 | 4.35 | O=c1ccn(C2CN(S(=O)(=O)c3ccccc3[N+](=O)[O-])c3ccccc3CO2)c(=O)[nH]1 (stereo unspecified)
32 | 5.90 | O=S1(=O)CC(n2cnc3c(Cl)ncnc32)OCc2ccccc21 (stereo unspecified)
33 | 6.04 | O=[N+]([O-])c1ccccc1S(=O)(=O)N1CC(n2cnc3ncnc(Cl)c32)OCc2ccccc21 (stereo unspecified)
34 | 4.14 | O=c1[nH]cc(F)c(=O)n1C1CNc2ccccc2CO1 (stereo unspecified)
35 | 4.79 | COC(CN(C(=O)c1ccccc1)c1ccccc1CO)n1cc(F)c(=O)[nH]c1=O (stereo unspecified)
36 | 5.04 | Nc1ccccc1S(=O)(=O)N1CC(n2cnc3ncnc(Cl)c32)OCc2ccccc21 (stereo unspecified)
37 | 5.59 | O=[N+]([O-])c1ccccc1S(=O)(=O)N1CC(n2cnc3ncnc(Sc4ccccc4)c32)OCc2ccccc21 (stereo unspecified)
38 | 4.40 | O=c1ccn(C2CN(S(=O)(=O)c3ccc([N+](=O)[O-])cc3)c3ccccc3CO2)c(=O)[nH]1 (stereo unspecified)
39 | < 4.00 | COC(CN(c1ccccc1CO)S(=O)(=O)c1ccccc1N)n1cc(F)c(=O)[nH]c1=O (stereo unspecified)
40 | 4.71 | O=[N+]([O-])c1ccccc1S(=O)(=O)N1CC(n2cnc3ncnc(O)c32)OCc2ccccc21 (stereo unspecified)
41 | 4.44 | COC(CNc1ccccc1CO)n1cc(F)c(=O)[nH]c1=O (stereo unspecified)
42 | 5.90 | Clc1ncnc2c1ncn2C1CSc2ccccc2CO1 (stereo unspecified)
43 | 6.08 | O=C(OCC1c2ccccc2-c2ccccc21)N1CC(n2cnc3ncnc(Cl)c32)OCc2ccccc21 (stereo unspecified)
44 | 5.90 | O=c1ccn(C2COc3ccccc3CO2)c(=O)[nH]1 (stereo unspecified)
45 | 4.27 | O=C(OCC1c2ccccc2-c2ccccc21)N1CC(n2cnc3ncnc(O)c32)OCc2ccccc21 (stereo unspecified)
46 | 4.29 | O=c1cc[nH]c(=O)n1C1CN(S(=O)(=O)c2ccccc2[N+](=O)[O-])c2ccccc2CO1 (stereo unspecified)
47 | 5.90 | Clc1ncnc2ncn(C3CSc4ccccc4CO3)c12 (stereo unspecified)

same assay, conditions: mcf7

Row | pIC50 | Structure (SMILES)
48 | 4.95 | COC(CN(c1ccccc1CO)S(=O)(=O)c1ccccc1[N+](=O)[O-])n1cnc2c(Cl)ncnc21 (stereo in doubt; 51)

tested on: MCF7; assay: Induction of GP132 gene expression in human MCF7 cells by microarray; assay type: functional, cell-based; conditions: not given

Row | Structure (SMILES) | Activity
49 | O=C(OCC1c2ccccc2-c2ccccc21)N1CC(n2cnc3c(Cl)ncnc32)OCc2ccccc21 (racemic) | Active

tested on: MCF7; assay: Induction of ERN1 gene expression in human MCF7 cells by microarray; assay type: functional, cell-based; conditions: not given

Row | Structure (SMILES) | Activity
50 | O=C(OCC1c2ccccc2-c2ccccc21)N1CC(n2cnc3c(Cl)ncnc32)OCc2ccccc21 (racemic) | Active

tested on: MCF7; assay: Down regulation of RAC1 gene expression in human MCF7 cells by microarray; assay type: functional, cell-based; conditions: not given

Row | Structure (SMILES) | Activity
51 | O=[N+]([O-])c1ccc(S(=O)(=O)N2CC(n3cnc4ncnc(Sc5ccccc5)c43)OCc3ccccc32)cc1 (stereo unspecified) | Active
